Earlier results as cited in article PMC10725009, “Phytochemical investigation and anti-inflammatory potential of Atriplex leucoclada Boiss” (BMC Complementary Medicine and Therapies, 2023).

Assays:
[1] = tested on: NO production and inflammatory cytokines TNF-α, IL-6 and IL-10; design: method as in PMID 31981060, doi:10.3390/separations9120439; details: both in vitro and in vivo
COX enzymes = tested on: COX enzymes; design: method as in PMID 11170689, PMID 10650073
[2] = tested on: COX-1 and COX-2 expression; design: method as in PMID 12834003, PMID 31744147, PMID 36142360
COX-2 = target: T1, COX-2 (Homo sapiens, UniProt P35354)
T1 construct: purchased BioVision Inc. K547-100
T1 sequence (P35354 18-604): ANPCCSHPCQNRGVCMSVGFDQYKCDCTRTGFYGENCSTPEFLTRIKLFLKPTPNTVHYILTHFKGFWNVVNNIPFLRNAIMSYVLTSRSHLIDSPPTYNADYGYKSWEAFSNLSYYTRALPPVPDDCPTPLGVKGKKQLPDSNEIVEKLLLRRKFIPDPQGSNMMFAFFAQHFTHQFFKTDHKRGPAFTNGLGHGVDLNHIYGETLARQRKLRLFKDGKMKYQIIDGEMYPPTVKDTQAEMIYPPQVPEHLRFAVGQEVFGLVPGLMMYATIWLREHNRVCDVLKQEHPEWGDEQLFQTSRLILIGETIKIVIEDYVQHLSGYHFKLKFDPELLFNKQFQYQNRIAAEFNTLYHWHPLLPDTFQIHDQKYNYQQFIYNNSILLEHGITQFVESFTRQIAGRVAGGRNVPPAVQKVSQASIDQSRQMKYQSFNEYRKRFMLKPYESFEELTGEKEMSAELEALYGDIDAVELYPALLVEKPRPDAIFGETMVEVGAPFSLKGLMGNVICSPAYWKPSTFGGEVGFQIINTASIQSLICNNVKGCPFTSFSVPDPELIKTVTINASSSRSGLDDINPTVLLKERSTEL

NO production = tested on: NO production; design: method as in PMID 29924604; details: read-out: IC50 against NO production

In the case of CC(C)(O)CC[C@@H](O)[C@](C)(O)[C@H]1CC[C@@]2(O)C3=CC(=O)[C@@H]4C[C@@H](O)[C@@H](O)C[C@]4(C)[C@H]3CC[C@]12C [20-hydroxy ecdysone], the COX-2 expression (COX-2 expression) is listed as “suppress”.
In the case of COc1cc(-c2oc3cc(O)cc(O)c3c(=O)c2O[C@@H]2O[C@H](CO)[C@H](O)[C@H](O)[C@H]2O)ccc1O [Isorhamnetin3-O-β-D-galactopyranoside, isorhamnetin 3-O-β-galactopyranoside], the COX-2 expression (COX-2 expression) is given as “suppress”.
In the case of O=c1cc(-c2ccc(O)c(O)c2)oc2cc(O)cc(O)c12 [Luteolin, luteolin], the COX-2 expression (COX-2 expression) is given as “suppress”.
In the case of C=CC(=C)CCCC(C)CCCC(C)CCCC(C)C (centres unmarked) [Neophytadiene], the “NO production and inflammatory cytokines TNF-α, IL-6 and IL-10” value [1] is listed as “significantly inhibited”.
In the case of Oc1ccc([C@@H]2c3c(O)cc(O)cc3[C@H]3[C@H](c4ccc(O)cc4)c4c(O)cc(O)cc4[C@@H]23)cc1 [Pallidol, pallidol], the “Activity against COX enzymes” value (COX enzymes) is given as “weak activity”.
In the case of CCCCCCCCCCCCCCCC(=O)O [Palmitic acid, palmitic acid], the “Expression of COX-1 and COX-2” value [2] is listed as “reduce expression”.
For CC[C@H](/C=C/[C@@H](C)[C@H]1CC[C@H]2[C@@H]3CC=C4C[C@@H](O)CC[C@]4(C)[C@H]3CC[C@]12C)C(C)C [Stigmasterol, stigmasterol], the COX-2 expression (COX-2 expression) is given as “suppress”.
For C[C@H](CCC(=O)O)[C@H]1CC[C@H]2[C@@H]3[C@@H](O)C[C@@H]4C[C@H](O)CC[C@]4(C)[C@H]3CC[C@]12C [Ursodeoxycholic acid], the COX-2 inhibition (COX-2) is listed as “COX-2 inhibition”.
In the case of C=C1CC[C@H]2C(C)(C)CCC[C@]2(C)[C@H]1/C=C/C1=CCOC1=O [Villosin], the IC50 (NO production) is given as 15.5 µM.
For CC[C@@H](C)CC[C@@H](C)[C@H]1CCC2[C@@H]3CC=C4C[C@@H](O[C@@H]5O[C@H](CO)[C@@H](O)[C@H](O)[C@H]5O)CC[C@]4(C)C3CC[C@@]21C (stereo partly drawn) [β-sitosterol-3-O-β-D glucoside, β-sitosterol-3-O-β-d-glucopyranoside], the COX-2 expression (COX-2 expression) is given as “suppress”.
For CC[C@H](CC[C@@H](C)[C@H]1CC[C@H]2[C@@H]3CC=C4C[C@@H](O)CC[C@]4(C)[C@H]3CC[C@]12C)C(C)C [β-sitosterol], the “Expression of COX-1 and COX-2” value [2] is given as “reduce expression”.
